How the values were obtained:
[1] = test system: Plasminogen activator (PLAT); test: Plasminogen activator (PLAT) activation
[2] = test system: MMP1; test: PMA inflammation induced MMP1 production in human dermal fibroblasts; type: cell-based; details: for inhibition of PMA inflammation induced MMP1 production: human dermal fibroblasts, PMA 10 nM, 24 h (FIG. 3); for MMP production: summary of FIGS. 2, 3 and 4 (UV skin explants and PMA dermal fibroblasts)
Experimental: MMP-inhibitory activity for compounds of the invention was also assessed on human dermal fibroblasts. Dermal fibroblasts were cultured in Dulbecco's Modified Eagle Medium (DMEM) (Invitrogen) with 10% EBS (ex. Invitrogen) and 1% Pencillin/Streptavidin (ex. Invitrogen). To induce inflammation in the cells, PMA (phorbol myristate acetate) (ex. Sigma) was used at a concentration of 10 nM. […] The cells were stimulated for 24 h and the culture supernatant was collected and stored at −20° C. until further analysis. Fluorokine MultiAnalyte Profiling (xMAP) using the BioPlex (ex. Biorad) dual laser flow-based sorting and detection analyzers manufactured by Luminex corporation (Luminex, Austin, Tex.) was employed to measure levels of MMP in conditioned media samples of stimulated dermal fibroblasts. The technology incorporated polystyrene microspheres dyed internally with differing ratios of two spectrally distinct fluorophores to create a family of different spectrally addressed bead sets. The bead utilized in this study was conjugated with a biotinylated capture antibody specific for a unique MMPs, The assay was performed without antecedent serum depletion. Results were compared with medium from cells treated with vehicle only (DMSO). The assays utilized a 96-well microplate format and were processed according to the manufacturer's protocol, including generation of a standard curve for each target prepared in background assay diluents. Values that fell within the linear range of the calibration assay were accepted. Samples were analyzed using the Bio-Plex suspension array system and Bio-Plex Manager software 4.0 (Bio-Rad Laboratories, Hercules, Calif.). Quantities were determined by comparison to standard curves obtained for the different MMP.

[3] = test system: MMP-1, MMP-2, MMP-3, MMP-8, MMP-9; test: UV-induced MMP production in human skin explants; type: cell-based; details: 1% in propylene glycol (FIG. 2)
Experimental: MMP inhibition activity for compound of the invention was tested on human skin explants. Skin explants were sourced from 2 healthy caucasian female breast skin donor […]. A cream containing all-trans retinoic acid (tretinoin) (0.05%) was added topically using positive displacement pipette (5 ul/cm^2) to each explants. A similar cream base without tretinoin was used as placebo control. […] Solutions were kept under nitrogen and used immediately after preparation. Propylene glycol was used as vehicle control for the compounds of the invention in this study. Fluorokine MultiAnalyte Profiling (xMAP) using the BioPlex (ex. Biorad) dual laser flow-based sorting and detection analyzers manufactured by Luminex corporation (Luminex, Austin, Tex.) was employed to measure levels of MMP in conditioned media samples of stimulated dermal fibroblasts. The technology incorporated polystyrene microspheres dyed internally with differing ratios of two spectrally distinct fluorophores to create a family of different spectrally addressed bead sets. […] Samples were analyzed using the Bio-Plex suspension array system and Bio-Plex Manager software 4.0 (Bio-Rad Laboratories, Hercules, Calif.). Quantities were determined by comparison to standard curves obtained for the different MMP.

[4] = test system: heparin-binding EGF-like growth factor (HBEGF); test: Affymetrix gene array on skin explants, HBEGF; type: cell-based, human; details: topical, 24 hours, cut-off |log 2−ratio|>1
Excerpt: (§1) Subcutaneous fat from full thickness skin, obtained from surgical waste material from breast reduction procedures, was removed with a scalpel. Three healthy Caucasian female donors were used for this study. The female donors differed from those of the skin-treatment study outlined previously 8 mm punch biopsies were taken from the skin (and these biopsies are now referred to as skin explants). Skin explants were put on Milipore cell culture inserts (12 mm diameter). Inserts containing skin explants were put in 6-well plates (one insert/well) and 1 mL of supplemented keratinocyte medium (ex Cascade Biologics) was added to each well. A tretinoin-containing cream (Aberela® ex. Janssen): 0.05% tretinoin in the cream, was applied topically to each explant (5 μL/cm^2) using a positive displacement pipette. A placebo cream without tretinoin was used as a control. The skin explants were incubated with tretinoin for 24 hours at 37° C. in 5% CO2-humidified air.
(§2) RNA concentration was measured with ND-1000 spectrophotometer (ex. NanoDrop Technologies) and RNA quality was evaluated using the Agilent 2100 bioanalyzer system (ex. Agilent Technologies). 250 nanograms of total RNA from each skin or skin explant sample was used to prepare biotinylated fragmented cRNA according to the GeneChip® 3′IVT Express Kit Manual (PN702646 Rev 1, ex. Affymetrix Inc.). Affymetrix GeneChip® expression arrays (Human Genome U133 Plus 2.0) were hybridized for 16 hours in a 45° C. incubator, rotated at 60 rpm. According to the GeneChip Expression Wash, Stain and Scan Manual (PN 702731 Rev 2, ex. Affymetrix Inc.) the arrays were washed and stained using the Fluidics Station 450 and scanned using the GeneChip® Scanner 3000 7G.
Analysis of the gene expression data was carried out in the statistical computing language R (http://www.r-project.org) using packages available from the Bioconductor project (www.bioconductor.org). The raw data was normalized using the robust multi-array average (RMA) method. […]

[5] = test system: keratin 6; test: Keratin-6 production in normal human keratinocytes; type: cell-based; details: normal human keratinocytes (FIG. 11)
[6] = test system: human reconstructed epidermis (SkinEthic model); test: In vitro skin irritation, OECD guideline 439; type: cell-based; details: pure compound, cytotoxicity assay on reconstructed epidermis
Experimental: The studies, aimed at evaluating the capability of the test compound to induce skin irritation effects by a cytotoxicity assay on in vitro human reconstructed epidermis (SkinEthic), were carried out according to the ECVAM protocol of Apr. 27, 2007, the B46 method of the official journal of the European union, dated Aug. 14, 2009 and the OECD guideline 439.

[7] = test system: connective tissue growth factor (CTGF); test: Affymetrix gene array on skin explants, CTGF; type: cell-based, human; details: topical, 24 hours, cut-off |log 2−ratio|>1
Excerpt: as §1, §2
Analysis of the gene expression data was carried out in the statistical computing language R (http://www.r-project.org) using packages available from the Bioconductor project (www.bioconductor.org). The raw data was normalized using the robust multi-array average (RMA) method. In order to search for differentially expressed genes between the X samples and the Y samples group an empirical Bayes moderated t-test was then applied using the ‘limma’ package.
Skin explants were obtained as detailed in Example 3.1. Compounds naringenin and N-acetyl aspartic acid were topically applied on skin explants for 24 hours and investigated with Affymetrix gene array.

[8] = In vitro skin permeation, static Franz diffusion cells; type: in vitro ADME; details: 0.5% w/w in a basic formulation, topical, 24 hours, pig skin (FIG. 1)
Excerpt: The in vitro skin permeation experiments were developed and validated according to the Organization for Economic Co-Operation and Development adopted guideline 428 (OECD guideline for the testing of chemicals. Skin absorption: in vitro method. Guideline 428 (Paris, April 2004, updated January 2011)).
For this investigation, static Franz glass diffusion cells (Permegear, USA) were used. These cells consist of donor and receptor chambers in between which a piece of porcine skin was positioned (thickness 800 μm). About 20 mg/cm^2 of each formulation were applied on the skin surface through the donor compartment in triplicate for each formulation. The pig skin samples were equilibrated for 30 minutes, and air bubbles were removed. The cells were kept at constant temperature with a circulating water flow at 37° C. and the receptor compartment content (ethanol/water 50:50) was continuously agitated by magnetic stirrers.
After an exposure time of 24 hours, the diffusion cells were dismounted and each active was analysed in each compartment. • the non absorbable dose: the skin surface was washed with 10.0 ml of methanol and one tape-strip was made in order to remove the residual donor samples. • the potentially absorbable dose: the tape stripping procedure was used in order to separate the stratum corneum from the skin sample. […]

penetration into the skin [8]	SMILES	Plasminogen activator (PLAT) activation [1]	inhibition of PMA inflammation induced MMP1 production [2]	MMP production [2]	inhibition of UV-induced MMP-1, MMP-2, MMP-3, MMP-8, MMP-9 production [3]	HBEGF gene expression [4]	keratin-6 production [5]	skin irritation [6]	CTGF gene expression [7] [log 2−ratio]
	C=C1C[C@]23C[C@@]1(O)CC[C@H]2[C@@]12C=C[C@H](O)[C@@](C)(C(=O)O1)[C@@H]2[C@@H]3C(=O)O [Gibberellic acid, (3S,3aS,4S,4aS,7S,9aR,9bR,12S)-7,12-dihydroxy-3-methyl-6-methylene-2-oxoperhydro-4a,7-methano-9b,3-propenoazuleno[1,2-b]furan-4-carboxylic acid]	activated	inhibition	ability to inhibit MMP production	inhibition				
penetration of each active into the skin	O=C1C[C@@H](c2ccc(O)cc2)Oc2cc(O)cc(O)c21 [Naringenin, (S)-2,3-Dihydro-5,7-dihydroxy-2-(4-hydroxyphenyl)-4H-1-benzopyran-4-one]		inhibition	ability to inhibit MMP production		1.19 log 2−ratio	stimulated keratin-6 production	non-irritating to skin	1.05
penetration of each active into the skin	CC(=O)N[C@@H](CC(=O)O)C(=O)O [N-Acetyl aspartic acid, (2S)-2-Acetamidobutanedioic acid]	activated	inhibition	ability to inhibit MMP production	inhibition	No		non-irritating to skin	1.03

Source: patent US20140301961A1, “COMPOUNDS WITH ANTI-AGING ACTIVITIES” (priority 2011, published 2014)
